Literature values, collected in PMC9669016, “First-in-human phase Ia study of the PI3Kα inhibitor CYH33 in patients with solid tumors” (Nature Communications, 2022).
Where two headings read alike, the source gives them in different places.

What was measured:
[1] = tested on: PI3Kα and its mutants; parameters: method as in PMID 33109399; conditions: read-out: IC50 range; cited from earlier work
[2] = parameters: method as in Study Protocol CYH33-101 Table 2; conditions: in H2O; ref Study Protocol CYH33-101 Table 2; cited from earlier work
[3] = parameters: method as in Study Protocol CYH33-101 Table 2; conditions: ref Study Protocol CYH33-101 Table 2; cited from earlier work
[4] = tested on: more than 300 other kinases, including PIKK family; parameters: method as in Investigator's Brochure (IB) 12; conditions: ref Investigator's Brochure (IB) 12; cited from earlier work
[5] = tested on: EC063 esophageal cancer PDX; parameters: method as in Investigator's Brochure (IB) 12; conditions: 12.5 mg/kg oral for 21 days; ref Investigator's Brochure (IB) 12; cited from earlier work
[6] = tested on: phosphorylation of Akt and rpS6; parameters: method as in Investigator's Brochure (IB) 12; conditions: ref Investigator's Brochure (IB) 12, cited from earlier work
[7] = parameters: method as in Investigator's Brochure (IB) 12; conditions: ref Investigator's Brochure (IB) 12, cited from earlier work; for absolute bioavailability: 1 mg/kg
[8] = parameters: method as in Investigator's Brochure (IB) 12; conditions: dogs, ref Investigator's Brochure (IB) 12, cited from earlier work
[9] = parameters: method as in Investigator's Brochure (IB) 12; conditions: rats, without concentration dependency; ref Investigator's Brochure (IB) 12; cited from earlier work
[10] = parameters: method as in Investigator's Brochure (IB) 12; conditions: dogs, without concentration dependency; ref Investigator's Brochure (IB) 12; cited from earlier work
[11] = parameters: method as in Investigator's Brochure (IB) 12; conditions: ref Investigator's Brochure (IB) 12, cited from earlier work
[12] = tested on: CYP1A2; parameters: method as in Investigator's Brochure (IB) 12; conditions: up to 100 µM; ref Investigator's Brochure (IB) 12; cited from earlier work
[13] = tested on: CYP2C8; parameters: method as in Investigator's Brochure (IB) 12; conditions: up to 100 µM; ref Investigator's Brochure (IB) 12; cited from earlier work
[14] = tested on: CYP2B6; parameters: method as in Investigator's Brochure (IB) 12; conditions: up to 100 µM; ref Investigator's Brochure (IB) 12; cited from earlier work
[15] = tested on: CYP2C9; parameters: method as in Investigator's Brochure (IB) 12; conditions: up to 100 µM; ref Investigator's Brochure (IB) 12; cited from earlier work
[16] = tested on: CYP2C19; parameters: method as in Investigator's Brochure (IB) 12; conditions: up to 100 µM; ref Investigator's Brochure (IB) 12; cited from earlier work
[17] = tested on: CYP2D6; parameters: method as in Investigator's Brochure (IB) 12; conditions: up to 100 µM; ref Investigator's Brochure (IB) 12; cited from earlier work
[18] = tested on: CYP3A4; parameters: method as in Investigator's Brochure (IB) 12; conditions: up to 100 µM; ref Investigator's Brochure (IB) 12; cited from earlier work
[19] = tested on: Caco-2 cells; parameters: method as in Investigator's Brochure (IB) 12; conditions: 2.00 - 10.0 µM; efflux transporters may be involved; ref Investigator's Brochure (IB) 12; cited from earlier work
[20] = tested on: Beagle dogs; parameters: method as in Investigator's Brochure (IB) 12; conditions: species wording unclear (Beagle dogs / rats); ref Investigator's Brochure (IB) 12; cited from earlier work
[21] = tested on: SD rats; parameters: method as in Investigator's Brochure (IB) 12; conditions: ref Investigator's Brochure (IB) 12; cited from earlier work
[22] = tested on: Beagle dogs; parameters: method as in Investigator's Brochure (IB) 12; conditions: ref Investigator's Brochure (IB) 12; cited from earlier work
[23] = tested on: Beagle dogs; parameters: method as in Investigator's Brochure (IB) 12; conditions: long-term, ref Investigator's Brochure (IB) 12; cited from earlier work
[24] = tested on: pregnant rats; parameters: method as in Investigator's Brochure (IB) 12; conditions: ref Investigator's Brochure (IB) 12; cited from earlier work
[25] = tested on: CHL; parameters: method as in Investigator's Brochure (IB) 12; conditions: ref Investigator's Brochure (IB) 12; cited from earlier work
[26] = tested on: mice bone marrow; parameters: method as in Investigator's Brochure (IB) 12; conditions: ref Investigator's Brochure (IB) 12; cited from earlier work
[27] = tested on: salmonella typhimurium; conditions: cited from earlier work

For COC(=O)Nc1cc(C(F)(F)F)c(-c2nc(N3CCOCC3)c3cc(CN4CCN(S(C)(=O)=O)CC4)cn3n2)cn1 [CYH33, methyl (5-(6-((4-(methylsulfonyl)piperazin-1-yl)methyl)−4-morpholinopyrrolo[2,1-f][1,2,4]triazin-2-yl)−4-(trifluoromethyl)pyridin-2-yl)carbamate], the IC50 [1] is given as 5 to 20 nM, the pKa [2] is given as 4.86 ± 0.06 and the “log P” value [3] is given as 2.89. The “effects on more than 300 other kinases, including other PIKK family members” value [4] was “slight”, the T/C ratio [5] was “approximately 30%” and the “time of peak concentration in tumor tissues” value ([6]; single dose 12.5, 25, 50 mg/kg) was 2 h. For the same molecule, the “phosphorylation of Akt and rpS6 in tumor tissues” value ([6]; single dose, at 0.25 h (25, 50 mg/kg) or 0.5 h (12.5 mg/kg), recovered after 8 h) was “down-regulate”, the absolute bioavailability ([7]; female rats) was 53.7% and the “plasma clearance CL” value ([7]; female rats) was 34.0 mL/min/kg. For the same molecule, the t1/2 ([7]; female rats) was 6.7 h, the “exposure AUC0-t in female rats relative to male rats” value ([7]; intragastric administration) was “more than 12 times” and the absolute bioavailability ([7]; male rats) was 19.0%. For the same molecule, the “plasma clearance CL” value ([7]; male rats) was 4.83 mL/min/kg, the t1/2 ([7]; male rats) was 1.3 to 4.5 h and the “Vss, steady-state volume of distribution” value ([7]; rats) was 1.96 L/kg. For the same molecule, the “accumulation after continuous administration for 7 days” value ([7]; rats) was “not significant”, the absolute bioavailability ([8]; 0.05 mg/kg) was 70.9% and the “Vss, steady-state volume of distribution” value [8] was 1.86 L/kg. For the same molecule, the “accumulation after continuous administration for 7 days” value [8] was “not significant”, the elimination half-life [8] was 5.1 h and the “plasma clearance CL” value [8] was 6.75 mL/min/kg. The “plasma protein binding (PPB)” value [9] was 97.5%, the “plasma protein binding (PPB)” value [10] was 97.1% and the “number of metabolites detected in vivo” value [11] was 14. For the same molecule, the urinary excretion [11] was “less than 1 % of the dose”, the “cumulative excretion of parent drug in feces” value ([11]; within 96 h after administration) was “approximately 24 % of the dose” and the “inhibition of CYP1A2” value [12] was “did not inhibit”. The “inhibition of CYP2C8” value [13] was “did not inhibit”, the “inhibition of CYP2B6” value [14] was “did not inhibit” and the “inhibition of CYP2C9” value [15] was “did not inhibit”. For the same molecule, the “inhibition of CYP2C19” value [16] was “did not inhibit”, the “inhibition of CYP2D6” value [17] was “did not inhibit” and the “inhibition of CYP3A4” value [18] was “did not inhibit”. For the same molecule, the permeability [19] was “moderately permeable”, the “arrhythmia, ECG, blood pressure and body temperature parameters” value [20] was “no drug-related arrhythmia or changes” and the “MTD, acute toxicity” value [21] was ≥ 600 mg/kg. For the same molecule, the “maximum tolerated dose (MTD), acute toxicity” value [22] was > 120 mg/kg, the “highest non-severely toxic dose (HNSTD)” value [23] was 0.2 mg/kg and the “no-observed-adverse-effect level (NOAEL) for embryo-fetal development” value [24] was 0.10 mg/kg. The “CHL chromosomal aberration assay result” value [25] was “negative”, the “mice bone marrow micronucleus test result” value [26] was “negative” and the “reverse mutation assay (Ames test) result” value [27] was “negative”.
